Twelve molecules from ChEMBL document CHEMBL1201862, “PubChem BioAssay data set” (2004) can be followed below.

Test systems include 786-0; BT-549; CAKI-1; HCC 2998; HOP-92; MCF7; Malme-3M; NCI-H23; NCI-H522; NCI/ADR-RES; RPMI-8226; RXF 393; SF-539; SK-MEL-28; SK-MEL-5; SK-OV-3; SN12C; SR; UO-31; DMS-114.
Common to all, as to test: DTP human tumour cell line panel, 48 h

Structures are written as SMILES.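 The compound was tested at five concentrations on cells cultured in 96-well plates, with a 48-hour exposure period. Here, GI50 denotes the concentration required for 50% inhibition of growth.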 Activity calls are given as the source filed them. Rule as the data show it: active = GI50 up to about 1.1 µM and inactive = higher. Where a SMILES comes first, the peptide text is derived from it. The star is where a group is joined. Cbz = O=C(OCc1ccccc1)*

Take `CN(C)CC1CCC/C(=C\c2ccc(OC(=O)/C=C/c3ccc(Cl)c(Cl)c3)cc2)C1=O` (stereo not drawn): the GI50 in the experiment with 786-0 is 1.83 µM (inactive); in the experiment on BT-549, 3.42 µM (inactive); with CAKI-1, 2.26 µM (inactive); in the experiment with HCC 2998, 2.92 µM (inactive); in the experiment on HOP-92, 1.79 µM (inactive); in the experiment on MCF7, 0.857 µM (active). Further, the GI50 was 5.4 µM (inactive) in the experiment with Malme-3M; 3.77 µM (inactive) with NCI-H23; 3.37 µM (inactive) in the experiment with NCI-H522; 2.92 µM (inactive) with NCI/ADR-RES; 0.164 µM (active) with RPMI-8226; 1.88 µM (inactive) with RXF 393. Besides, the GI50 with SF-539 was 2.59 µM (inactive); in the experiment with SK-MEL-28 it was 7.8 µM (inactive); in the experiment with SK-MEL-5 it was 4.09 µM (inactive); in the experiment with SK-OV-3, 37.3 µM (inactive); in the experiment with SN12C, 2.39 µM (inactive); in the experiment with SR it was 1.21 µM (inactive). Also, the GI50 with UO-31 was 2.77 µM (inactive).
In the case of `Cc1ccccc1C(C#N)C(=O)C(=O)Nc1nc([N+](=O)[O-])cs1` (stereo not drawn), the GI50 in the experiment with 786-0, in the experiment on CAKI-1, in the experiment with DMS-114, in the experiment with HCC 2998, in the experiment with Malme-3M and with NCI-H23 was > 100 µM (inactive) throughout. Besides, the GI50 in the experiment on NCI-H522, in the experiment with RXF 393, in the experiment with SF-539, in the experiment with SK-MEL-28, in the experiment with SK-MEL-5 and in the experiment with SK-OV-3 was > 100 µM (inactive) in each case. The GI50 with SN12C and with UO-31 was > 100 µM (inactive) throughout.
For the molecule `C=CC(C)(C)[C@@]12CC3C(=O)N[C@@H](Cc4ccccc4)C(=O)N3[C@@H]1N(C(C)=O)c1ccccc12` (stereo partly drawn), the GI50 was > 100 µM (inactive) with 786-0; 75.3 µM (inactive) in the experiment on DMS-114; 25.2 µM (inactive) in the experiment with HOP-92; > 100 µM (inactive) in the experiment with Malme-3M; > 100 µM (inactive) with NCI-H23; 43.2 µM (inactive) in the experiment on RPMI-8226. The GI50 is > 100 µM (inactive) with SF-539; > 100 µM (inactive) with SK-MEL-28; 37.2 µM (inactive) in the experiment on SK-MEL-5; > 100 µM (inactive) with SK-OV-3; 75.3 µM (inactive) with SN12C; > 100 µM (inactive) in the experiment on SR. In addition, in the experiment on UO-31, the GI50 is 54.8 µM (inactive).
As for `COc1cc2c(cc1Cc1c(F)cccc1Cl)nc(-c1c(F)cccc1Cl)n2Cc1c(F)cccc1Cl`, the GI50 with 786-0 was 24.4 µM (inactive); in the experiment on BT-549, 28.8 µM (inactive); with CAKI-1, 6.07 µM (inactive); in the experiment on HCC 2998, 17.5 µM (inactive); in the experiment with HOP-92, 2.64 µM (inactive); in the experiment with MCF7, 35.2 µM (inactive). Besides, the GI50 is 20 µM (inactive) in the experiment with Malme-3M; 19.8 µM (inactive) in the experiment on NCI-H23; 16.1 µM (inactive) in the experiment with NCI-H522; 38.7 µM (inactive) in the experiment with NCI/ADR-RES; 13.7 µM (inactive) in the experiment on RPMI-8226; 77.3 µM (inactive) in the experiment on RXF 393. Moreover, the GI50 with SF-539 is 21 µM (inactive); with SK-MEL-28, 65.6 µM (inactive); with SK-MEL-5 it was 13.5 µM (inactive); in the experiment with SK-OV-3, 20.8 µM (inactive); in the experiment with SN12C, 20.9 µM (inactive); in the experiment with SR, 26.7 µM (inactive). Also, in the experiment with UO-31, the GI50 was 48.4 µM (inactive).
Turning to `Oc1ccc(O)c(-n2cccn2)c1-n1cccn1`, the GI50 with 786-0, with CAKI-1, in the experiment on DMS-114, in the experiment on HCC 2998, in the experiment with HOP-92 and with Malme-3M was > 100 µM (inactive) throughout. The GI50 in the experiment with NCI-H23 was > 100 µM (inactive); in the experiment on NCI-H522 it was 25.7 µM (inactive); in the experiment on RPMI-8226 it was > 100 µM (inactive); in the experiment on RXF 393, > 100 µM (inactive); in the experiment on SF-539, > 100 µM (inactive); in the experiment on SK-MEL-28 it was > 100 µM (inactive). Further, the GI50 with SK-MEL-5, with SK-OV-3, in the experiment on SN12C and in the experiment on UO-31 was > 100 µM (inactive) throughout.
For `NC(=S)N/N=C1/CN(c2ccc(Cl)c(Cl)c2)CC(=O)C1c1nc2ccccc2s1` (stereo not drawn), the GI50 with 786-0 is > 100 µM (inactive); in the experiment on CAKI-1, > 100 µM (inactive); in the experiment with DMS-114, 51.8 µM (inactive); in the experiment with HCC 2998, > 100 µM (inactive); in the experiment on HOP-92, > 100 µM (inactive); with Malme-3M, > 100 µM (inactive). The GI50 in the experiment with NCI-H23 was 45.1 µM (inactive); in the experiment on NCI-H522 it was 36.1 µM (inactive); with RPMI-8226, 79.1 µM (inactive); in the experiment with RXF 393, > 100 µM (inactive); in the experiment with SF-539 it was 51.5 µM (inactive); in the experiment on SK-MEL-28, 92.3 µM (inactive). In addition, the GI50 was > 100 µM (inactive) with SK-MEL-5, > 100 µM (inactive) in the experiment on SK-OV-3, 95.7 µM (inactive) with SN12C and 38.7 µM (inactive) in the experiment on UO-31.
Turning to `CCN(CC)CCSc1c2ccccc2nc2c(OC)ccc(OC)c12`, the GI50 was 4.13 µM (inactive) in the experiment on 786-0; 3.1 µM (inactive) with CAKI-1; 1.63 µM (inactive) with DMS-114; 2.36 µM (inactive) in the experiment on HOP-92; > 41.2 µM (inactive) with Malme-3M; 14.6 µM (inactive) with NCI-H23. Also, the GI50 in the experiment on NCI-H522 is 3.26 µM (inactive); in the experiment with RPMI-8226, 2.23 µM (inactive); in the experiment on RXF 393 it was 1.94 µM (inactive); with SK-MEL-28, 2.94 µM (inactive); with SK-MEL-5, 4.66 µM (inactive); in the experiment on SK-OV-3, 36 µM (inactive). Further, the GI50 with SN12C is 5.73 µM (inactive); in the experiment with SR, 1.1 µM (active); in the experiment on UO-31 it was 12.8 µM (inactive).
As for `O=C(O)C1(C(=O)O)CC1`, the GI50 in the experiment with 786-0, in the experiment on CAKI-1, in the experiment with DMS-114, in the experiment on HCC 2998, with Malme-3M and with NCI-H23 was > 100 µM (inactive) each time. For the same molecule, the GI50 in the experiment with NCI-H522 was > 100 µM (inactive); with RPMI-8226 it was > 100 µM (inactive); in the experiment with RXF 393, 40 µM (inactive); in the experiment on SF-539, > 100 µM (inactive); in the experiment on SK-MEL-28, > 100 µM (inactive); in the experiment with SK-MEL-5, > 100 µM (inactive). Further, the GI50 in the experiment with SK-OV-3, with SN12C and in the experiment with UO-31 was > 100 µM (inactive) in each case.
For `Cc1ccc(C(=O)/C=C2/Nc3ccc([N+](=O)[O-])cc3N/C2=C/C(=O)c2ccc(C)cc2)cc1`, the GI50 in the experiment with 786-0 was 60.7 µM (inactive); with BT-549, > 100 µM (inactive); in the experiment on CAKI-1 it was 87.5 µM (inactive); with HCC 2998, > 100 µM (inactive); in the experiment on HOP-92 it was 61.4 µM (inactive); in the experiment on MCF7 it was 84.1 µM (inactive). The GI50 with Malme-3M is > 100 µM (inactive); in the experiment with NCI-H23, 37.7 µM (inactive); in the experiment on NCI-H522 it was 47.1 µM (inactive); in the experiment on NCI/ADR-RES, 47.6 µM (inactive); with RPMI-8226, > 100 µM (inactive); in the experiment on RXF 393, 36.6 µM (inactive). The GI50 is 52.8 µM (inactive) in the experiment on SF-539; > 100 µM (inactive) in the experiment on SK-MEL-28; > 100 µM (inactive) in the experiment with SK-MEL-5; 41.1 µM (inactive) with SK-OV-3; > 100 µM (inactive) in the experiment on SN12C; 54.2 µM (inactive) with SR. The GI50 in the experiment on UO-31 is > 100 µM (inactive).
As to `C#CCN(N=O)C(=O)ON1C(=O)CCC1=O`, the GI50 in the experiment with 786-0, in the experiment with DMS-114, in the experiment with HOP-92, with Malme-3M, in the experiment on NCI-H23 and in the experiment on NCI-H522 was > 100 µM (inactive) throughout. In addition, the GI50 in the experiment on RPMI-8226, with RXF 393, in the experiment with SF-539, in the experiment with SK-MEL-28, in the experiment on SK-MEL-5 and in the experiment with SK-OV-3 was > 100 µM (inactive) throughout. The GI50 in the experiment with SN12C and with UO-31 was > 100 µM (inactive) each time.
Turning to `COC(=O)CCC12CCC(=O)C1[C@@H](C(=O)OC)C[C@H]2C(=O)OC` (stereo partly drawn), the GI50 in the experiment with 786-0, in the experiment with CAKI-1, with DMS-114, with HCC 2998, with Malme-3M and with NCI-H23 was > 100 µM (inactive) each time. The GI50 in the experiment on NCI-H522, in the experiment with RPMI-8226, in the experiment with RXF 393, in the experiment on SF-539, in the experiment on SK-MEL-5 and in the experiment on SK-OV-3 was > 100 µM (inactive) throughout. The GI50 in the experiment on SN12C and with UO-31 was > 100 µM (inactive) each time.
In the case of `CCOC(=O)CCC(NC(=O)C(Cc1ccccc1)NC(=O)OCc1ccccc1)C(=O)OCC` (stereo not drawn) (Cbz-Phe-Glu(OEt)-OEt; configuration not given here), the GI50 was 18.1 µM (inactive) with 786-0; > 100 µM (inactive) with BT-549; 16.7 µM (inactive) in the experiment on CAKI-1; 17.7 µM (inactive) in the experiment on HCC 2998; 18.5 µM (inactive) in the experiment with HOP-92; 19.2 µM (inactive) in the experiment with MCF7. Besides, the GI50 was 17.4 µM (inactive) in the experiment on Malme-3M; 17 µM (inactive) with NCI-H23; 15.7 µM (inactive) in the experiment with NCI-H522; 18.2 µM (inactive) in the experiment with NCI/ADR-RES; 35 µM (inactive) in the experiment with RPMI-8226; 17.9 µM (inactive) in the experiment on RXF 393. Besides, the GI50 with SF-539 was 20.3 µM (inactive); with SK-MEL-28 it was 17.9 µM (inactive); in the experiment with SK-MEL-5, 15.5 µM (inactive); in the experiment on SK-OV-3, 16.6 µM (inactive); in the experiment with SN12C, 20.7 µM (inactive); in the experiment with SR it was 27 µM (inactive). Also, in the experiment on UO-31, the GI50 was 17.4 µM (inactive).
